# Measured values reported in DBAASP.
# Columns and labels:
# Assay in all cases: ≥ marks a high value that may be exact or a test limit, other limits are often not marked, values filed in µg/mL are converted to µM
# [1] = system: Staphylococcus aureus ATCC 25923
# [2] = system: Staphylococcus epidermidis ATCC 12228
# Escherichia coli 078 = system: Escherichia coli 078
# [3] = system: Salmonella enterica subsp. enterica serovar Pullorum ATCC 7913
# [4] = system: Staphylococcus aureus ATCC 43300
# [5] = system: Candida parapsilosis CGMCC 2.3989
# [6] = system: Candida tropicalis CGMCC 2.1975
# [7] = system: Pseudomonas aeruginosa ATCC 27853
# [8] = system: Salmonella enterica subsp. enterica serovar Typhimurium ATCC 14028
# Escherichia coli K88 = system: Escherichia coli K88
# [9] = system: Salmonella enterica subsp. enterica serovar Typhimurium C77-31
# Escherichia coli K99 = system: Escherichia coli K99
# Escherichia coli UB1005 = system: Escherichia coli UB1005
# [10] = system: Bacillus subtilis KCTC 1998
# [11] = system: Escherichia coli CCARM 1238
# [12] = system: Pseudomonas aeruginosa 4891
# [13] = system: Staphylococcus aureus CCARM 3518
# [14] = system: Salmonella typhimurium KCTC 1926
# [15] = system: Listeria monocytogenes KCTC 3710
# [16] = system: Pseudomonas aeruginosa 4007
# [17] = system: Escherichia coli ATCC 25922
# [18] = system: Trichosporon beigelii KCTC 7707
# [19] = system: Staphylococcus aureus CCARM 3090
# [20] = system: Candida albicans KCTC 7270
# [21] = system: Escherichia coli CCARM 1229
# [22] = system: Staphylococcus aureus ATCC 29213
# [23] = system: Salmonella enterica subsp. enterica serovar Pullorum C79-13
# Staphylococcus aureus = system: Staphylococcus aureus
# Streptococcus agalactiae = system: Streptococcus agalactiae
# [24] = system: Salmonella enterica subsp. enterica serovar Choleraesuis CVCC 503
# [25] = system: Enterococcus faecalis ATCC 29212
MIC [1],MIC [2],MIC [4],MIC [7],MIC [8],MIC [9],MIC (Escherichia coli UB1005),MIC [10],MIC [11],MIC [12],MIC [13],MIC [14],MIC [15],MIC [16],MIC [17],MIC [18],MIC [19],MIC [20],MIC [21],SMILES,other results
2 µM,1 µM,1 µM,4 µM,2 µM,4 µM,4 µM,–,–,–,–,–,–,–,–,–,–,–,–,CC[C@H](C)[C@H](NC(=O)[C@H](CCCN=C(N)N)NC(=O)[C@H](C)NC(=O)[C@H](C)N)C(=O)N[C@H](C(=O)N[C@@H](CC(C)C)C(=O)N[C@@H](CCCN=C(N)N)C(=O)N[C@@H](Cc1c[nH]c2ccccc12)C(=O)N[C@@H](CCCN=C(N)N)C(=O)N[C@@H](Cc1ccccc1)C(=O)N[C@@H](CCCN=C(N)N)C(N)=O)[C@@H](C)CC [AARIILRWRFR],MIC (Escherichia coli 078): 2 µM; MIC [3]: 2 µM; MIC [5]: 4 µM; MIC [6]: 4 µM; MIC (Escherichia coli K88): 2 µM; MIC (Escherichia coli K99): 2 µM
16 µM,–,–,8 µM,–,–,–,16 µM,16 µM,≥ 32 µM,≥ 32 µM,8 µM,16 µM,≥ 32 µM,8 µM,≥ 32 µM,≥ 32 µM,≥ 32 µM,16 µM,CC[C@H](C)[C@H](NC(=O)CNC(=O)[C@H](CCC(N)=O)NC(=O)[C@H](CO)NC(=O)[C@@H](NC(=O)[C@H](CCCCN)NC(=O)[C@H](CCCCN)NC(=O)[C@H](CC(C)C)NC(=O)[C@H](C)NC(=O)[C@H](CC(N)=O)NC(=O)[C@H](CC(C)C)NC(=O)[C@H](C)N)C(C)C)C(=O)N[C@@H](Cc1cnc[nH]1)C(=O)N[C@@H](CCC(=O)O)C(=O)N[C@@H](C)C(=O)N[C@H](C(=O)N[C@@H](CCCCN)C(=O)N[C@@H](CC(C)C)C(=O)N[C@H](C(=O)N[C@@H](C)C(=O)N[C@@H](CC(N)=O)C(=O)N[C@@H](Cc1cnc[nH]1)C(=O)N[C@H](C(=O)N[C@@H](CCC(N)=O)C(N)=O)C(C)C)[C@@H](C)CC)[C@@H](C)CC [ALNALKKVSQGIHEAIKLIANHVQ],–
–,> 64 µM,> 64 µM,–,> 64 µM,≥ 64 µM,≥ 64 µM,–,–,–,–,–,–,–,64 µM,–,–,–,–,CC[C@H](C)[C@H](N)C(=O)N[C@@H](CS)C(=O)N[C@@H](CCCN=C(N)N)C(=O)N[C@@H](CCCCN)C(=O)N1CCC[C@H]1C(=O)N[C@H](C(=O)N[C@H](C(=O)N[C@@H](CS)C(=O)N[C@@H](CCCN=C(N)N)C(=O)N[C@@H](CCCCN)C(=O)N1CCC[C@H]1C(=O)N[C@H](C(N)=O)[C@@H](C)CC)[C@@H](C)CC)[C@@H](C)CC [ICRKPIICRKPI],MIC [22]: > 64 µM; MIC [23]: ≥ 64 µM; MIC (Staphylococcus aureus): > 64 µM; MIC (Streptococcus agalactiae): ≥ 64 µM; MIC [24]: ≥ 64 µM; MIC [25]: > 64 µM
8 µM,–,–,4 µM,–,–,–,8 µM,4 µM,8 µM,8 µM,4 µM,8 µM,4 µM,4 µM,16 µM,8 µM,16 µM,4 µM,CC[C@H](C)[C@H](NC(=O)[C@H](CC(C)C)NC(=O)[C@H](CCCCN)NC(=O)[C@@H](NC(=O)[C@H](C)NC(=O)[C@H](CCC(=O)O)NC(=O)[C@H](Cc1cnc[nH]1)NC(=O)[C@@H](NC(=O)CNC(=O)[C@H](CCC(N)=O)NC(=O)[C@H](Cc1ccccc1)NC(=O)[C@@H](NC(=O)[C@H](CCCCN)NC(=O)[C@H](CCCCN)NC(=O)[C@H](CC(C)C)NC(=O)[C@H](C)NC(=O)[C@H](CC(N)=O)NC(=O)[C@@H](N)CC(C)C)C(C)C)[C@@H](C)CC)[C@@H](C)CC)C(N)=O [LNALKKVFQGIHEAIKLI],–
